We go through 40 compounds from ChEMBL document CHEMBL1821584, “Docking and 3D-QSAR (quantitative structure activity relationship) studies of flavones, the potent inhibitors of p-glycoprotein targeting the nucleotide binding domain” (Eur J Med Chem, 2011).

For the test, the target named is ATP-dependent translocase ABCB1 (Homo sapiens, UniProt P08183). As to the kind of experiment: Binding affinity to ABCB1 nucleotide binding domain 2.
ATP-dependent translocase ABCB1, sequence (P08183 whole entry, the tested form may be a part): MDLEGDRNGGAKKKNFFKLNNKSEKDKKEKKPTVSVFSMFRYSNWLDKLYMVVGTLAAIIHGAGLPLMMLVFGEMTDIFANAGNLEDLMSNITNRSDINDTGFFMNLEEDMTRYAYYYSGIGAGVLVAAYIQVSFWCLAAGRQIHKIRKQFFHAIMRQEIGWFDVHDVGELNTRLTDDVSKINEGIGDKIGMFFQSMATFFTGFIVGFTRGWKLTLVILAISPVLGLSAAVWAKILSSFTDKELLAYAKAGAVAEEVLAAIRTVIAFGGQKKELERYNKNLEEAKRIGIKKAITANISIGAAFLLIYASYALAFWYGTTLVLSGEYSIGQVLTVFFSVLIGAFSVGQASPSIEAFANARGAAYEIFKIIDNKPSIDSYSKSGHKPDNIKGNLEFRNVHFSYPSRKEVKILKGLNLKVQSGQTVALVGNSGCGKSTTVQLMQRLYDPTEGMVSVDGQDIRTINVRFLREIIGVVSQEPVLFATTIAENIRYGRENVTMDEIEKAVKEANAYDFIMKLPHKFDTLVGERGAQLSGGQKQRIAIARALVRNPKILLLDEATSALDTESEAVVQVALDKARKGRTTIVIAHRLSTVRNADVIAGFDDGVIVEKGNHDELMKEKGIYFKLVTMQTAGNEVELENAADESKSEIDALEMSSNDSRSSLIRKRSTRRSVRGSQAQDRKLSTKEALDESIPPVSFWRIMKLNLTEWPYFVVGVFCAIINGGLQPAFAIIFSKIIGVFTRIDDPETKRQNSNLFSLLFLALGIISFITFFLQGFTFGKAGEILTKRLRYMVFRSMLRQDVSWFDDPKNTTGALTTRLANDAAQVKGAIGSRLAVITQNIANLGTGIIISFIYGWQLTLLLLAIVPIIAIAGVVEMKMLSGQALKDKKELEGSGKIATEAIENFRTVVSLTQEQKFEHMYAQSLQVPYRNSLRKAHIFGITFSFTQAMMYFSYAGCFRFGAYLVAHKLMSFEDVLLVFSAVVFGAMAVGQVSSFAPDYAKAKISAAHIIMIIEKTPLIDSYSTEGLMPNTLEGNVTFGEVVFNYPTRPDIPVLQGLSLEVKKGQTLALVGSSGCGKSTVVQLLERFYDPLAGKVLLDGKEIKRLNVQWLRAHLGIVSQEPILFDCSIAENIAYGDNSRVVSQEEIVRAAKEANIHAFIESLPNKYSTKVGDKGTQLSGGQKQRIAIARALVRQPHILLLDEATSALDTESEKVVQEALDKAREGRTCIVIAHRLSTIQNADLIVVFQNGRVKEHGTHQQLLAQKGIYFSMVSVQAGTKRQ
In the case of `O=c1c(O)c(-c2ccc(O)cc2)oc2cc(O)cc(O)c12` [KAEMPFEROL], the Kd (in general, the free concentration of one partner at which half of the binding sites on the other are occupied at equilibrium, for simple one-to-one binding) is 6760 nM.
The figure for `O=c1c(O)c(-c2ccc(F)cc2)oc2cc(O)cc(O)c12` is 6760 nM; for `COc1c(-c2ccccc2)oc2cc(O)cc(O)c2c1=O` it is 8910 nM; for `C=CC(C)(C)c1c(O)cc(O)c2c(=O)cc(-c3ccccc3)oc12` it is 200 nM.
Compound `O=c1cc(-c2ccccc2)oc2cc(O)ccc12` [7-HYDROXYFLAVONE] had a Kd of 34700 nM.
The compound `Cc1c(O)cc2oc(-c3ccccc3)cc(=O)c2c1O` gave a Kd of 3090 nM. This Kd is about 11-fold lower than that of the compound before.
The figure for `O=c1cc(-c2ccccc2)oc2c(Cc3ccccc3)c(O)cc(O)c12` is 1000 nM; for `O=c1cc(-c2ccc(F)c(F)c2)oc2cc(O)cc(O)c12` it is 6310 nM.
Compound `CC(C)=CCC/C(C)=C/c1c(O)cc(O)c2c(=O)cc(-c3ccccc3)oc12` showed a Kd of 25.1 nM.
The figure for `C=CC(C)(C)c1c(O)cc(O)c2c(=O)c(O)c(-c3ccccc3)oc12` is 447 nM; for `O=c1c(O)c(-c2ccc(Cl)cc2Cl)oc2cc(O)cc(O)c12` it is 3980 nM.
To `COc1cc(O)c2c(=O)cc(-c3ccccc3)oc2c1` [TECHTOCHRYSIN] belongs 6310 nM.
The compound `O=c1c(O)c(-c2ccc(I)cc2)oc2cc(O)cc(O)c12` gave a Kd of 1100 nM. This Kd lies about 5.7-fold lower than the previous one.
For the compound `O=c1c(-c2ccc(O)cc2)coc2cc(O)cc(O)c12` [GENISTEIN], binding was put at a Kd of 26300 nM.
The compound `COc1ccc(-c2oc3cc(O)cc(O)c3c(=O)c2O)cc1` [KAEMPFERIDE] gave a Kd of 4470 nM.
For `CC(C)Oc1c(C(C)C)c(O)c2c(=O)cc(-c3ccccc3)oc2c1C(C)C`, the Kd was 33.1 nM.
`CCCCCCCCc1ccc(-c2oc3cc(O)cc(O)c3c(=O)c2O)cc1`: binding was characterised by a dissociation constant (Kd) of 57.5 nM.
The figure for `COc1cc2oc(-c3ccccc3)cc(=O)c2c(O)c1C` is 1290 nM; for `O=c1c(O)c(-c2ccccc2)oc2ccccc12` [FLAVONOL] it is 10000 nM; for `C=CC(C)(C)c1c(O)cc(O)c2c(=O)c(O)c(-c3ccc(OC)cc3)oc12` it is 200 nM.
Regarding `C=CC(C)(C)c1c(O)cc(O)c2c(=O)cc(-c3ccc(O)cc3)oc12`, binding was put at a Kd of 708 nM.
`O=c1cc(-c2ccccc2)oc2cc(O)c(Cc3ccccc3)c(O)c12` had a Kd of 339 nM. This Kd lies about 2.1-fold lower than the previous one.
The compound `CC(C)=Cc1c(O)cc(O)c2c(=O)c(O)c(-c3ccccc3)oc12` had a Kd of 219 nM.
The compound `O=c1cc(-c2ccc(O)cc2)oc2cc(O)cc(O)c12` [APIGENIN] showed a Kd of 10000 nM.
As for `O=c1cc(-c2ccccc2)oc2c(Cc3ccccc3)c(O)c(Cc3ccccc3)c(O)c12`, the Kd was 36.3 nM.
The figure for `O=c1cc(-c2ccc(I)cc2)oc2cc(O)cc(O)c12` is 2190 nM; for `CC(C)=Cc1c(O)cc(O)c2c(=O)cc(-c3ccccc3)oc12` it is 282 nM; for `O=c1c(O)c(C(c2ccccc2)c2ccccc2)oc2cc(O)cc(O)c12` it is 2000 nM.
On to `O=c1cc(-c2ccccc2)oc2ccccc12` [FLAVONE], for which the dissociation constant (Kd) is 33900 nM.
In the case of `CC(C)=Cc1c(O)cc2oc(-c3ccccc3)c(O)c(=O)c2c1O`, the affinity, expressed as Kd, was 209 nM. This Kd is about 160-fold lower than that of the compound before.
`CC(C)Oc1cc(O)c2c(=O)cc(-c3ccccc3)oc2c1`: the Kd is 1000 nM.
Turning to `CC(C)=Cc1c(O)cc2oc(-c3ccccc3)cc(=O)c2c1O`, binding was characterised by a dissociation constant (Kd) of 302 nM.
With `CC(C)=CCC/C(C)=C/c1c(O)cc2oc(-c3ccccc3)cc(=O)c2c1O`, the dissociation constant (Kd) is 44.7 nM.
Consider `CC(C)Oc1cc2oc(-c3ccccc3)cc(=O)c2c(O)c1C(C)C`, for which the Kd was 282 nM.
Consider `O=c1cc(-c2ccccc2)oc2cc(O)cc(O)c12` [CHRYSIN], for which the Kd is 8910 nM.
The figure for `C=CC(C)(C)c1c(OC)cc(O)c2c(=O)c(OC)c(-c3ccccc3)oc12` is 151 nM; for `CC(C)=Cc1c(O)c(C=C(C)C)c2oc(-c3ccccc3)cc(=O)c2c1O` it is 15.1 nM; for `CC(C)c1c(O)cc2oc(-c3ccccc3)cc(=O)c2c1O` it is 209 nM.
Regarding `O=c1c(O)c(-c2ccccc2)oc2cc(O)cc(O)c12` [GALANGIN], the Kd was 5890 nM.
In the case of `O=c1cc(-c2ccccc2)oc2cc(OCc3ccccc3)cc(O)c12`, the dissociation constant Kd was 67.6 nM.
